The values below come from patent US10682311B2, “Intranasal dexmedetomidine compositions and methods of use thereof” (BAUDAX BIO, INC., priority 2011, dated 2020).

For orientation: AUC(0-t) means exposure summed from dosing to a finite time, without extrapolation to infinity. High values mean high exposure, low ones low exposure. By Cmax is commonly meant the peak of the concentration-time curve. A word on the Tmax: it is the time from dosing to the highest level.

The data set is described as follows: clinical. As to conditions: human, in vivo, 35 ug. An excerpt:
This was a Phase 1, open-label, two period, repeated dose study in healthy subjects to investigate the safety, tolerability, and pharmacokinetics of intranasal dexmedetomidine. A total of 12 subjects (6 male and 6 female) were planned and enrolled. Healthy subjects between the ages of 18 and 50 years, inclusive, were screened for participation at one study site in the United States within 28 days before study drug administration. Medical history, physical examination, baseline laboratory testing, 12 lead electrocardiogram (ECG), pregnancy testing, vital sign measurements, and informed consent were completed during the screening visit.
During Period 1, subjects received two doses of study medication, separated by six hours. During Period 2, study participants received seven doses of study medication administered at six hour intervals. Study Periods were separated by not less than 24 hours between the last dose in Period 1 and the first dose in Period 2.
Serial blood samples were collected at defined intervals during each study period in order to evaluate the pharmacokinetic properties of intranasally administered dexmedetomidine, and its metabolite. Whole blood was collected in 6 mL evacuated collection tubes treated with K2EDTA.
Plasma samples were to be collected within ±2 minutes of the scheduled post-dose time through 60 minutes after dosing, samples collected 75 minutes to 6 hours after dosing were able to be collected within ±5 minutes, and samples collected at and beyond 12 hours after dosing were able to be collected within ±15 minutes of scheduled post-dose time. Actual times were to be recorded for all events, and any deviation outside the specified ranges were required to be clearly documented in the subject's study records.
Immediately after the collection of each sample, the collection tube was to be gently inverted and then placed in wet ice. Within 30 minutes of withdrawal, the tubes were centrifuged at about 2,000×gravity for 10-15 minutes to separate the cells from the plasma. No aids for separation were to be used. Two aliquots (≥0.5 mL each) of plasma were transferred from each sample with clean pipettes and placed in 2 polypropylene storage tubes in equal volumes. The storage tubes were labeled with the following information: protocol number, subject number, study day and relative time of sample (e.g., Period 1, Dose 1, 10 Minutes after dosing), and biologic matrix to be analyzed (e.g., plasma). Within 60 minutes of the collection time, the storage tubes were to be placed into a freezer at −20° C. or below; they remained in the freezer until shipment for analysis.
For pharmacokinetic analyses in Period 1, up to 12 blood samples were collected from each subject prior to and following administration of each study dose. These were collected at predose (Time 0) and at the following approximate times after each dose of study medication: 10, 20, 30, 45, 60, and 90 minutes and 2 and 4 hours; additional blood samples were collected at 6, 12 and 18 hours after Dose 2. In Period 2, up to 13 blood samples were collected from each subject prior to and following administration of Dose 1 and Dose 7. These were collected at predose (Time 0) and at the following approximate times after dosing with study medication: 10, 20, 30, 45, 60, and 90 minutes and 2 and 4 hours; additional blood samples were collected at 6, 12, 18 and 24 hours after Dose 7. Blood samples for Dose 2 through Dose 6 were collected at predose (Time 0) only. […]

`Cc1cccc([C@H](C)c2cnc[nH]2)c1C` [Dexmedetomidine, 5-[(1S)-1-(2,3-dimethylphenyl)ethyl]-1H-imidazole]: the AUC(0-t) reads like this: (both, AUC0-6) 0.39 ng·h/mL; (both, AUClast) 0.38 ng·h/mL. The highest concentration (Cmax) (both, Cmax) came to 0.09 ng/mL. For the setting “both, Tmax”, the Tmax stood at 1.26 h. For the setting “inhaled or intranasal”, the “accumulation (AUC for Dose 1 compared to Dose 7)” value was “little evidence of accumulation”.
